Four compounds from publication PMC9014415, “Repositioning of a Diaminothiazole Series Confirmed to Target the Cyclin-Dependent Kinase CRK12 for Use in the Treatment of African Animal Trypanosomiasis” (Journal of Medicinal Chemistry, 2022) can be followed below.

“Also recorded” adds a separate entry of the source.

One test deals with T. congolense. Put plainly: In vitro drug sensitivity assay, T. congolense (IL3000). Format: cell-based. The note with it: Trypanosoma congolense; IL3000 strain. How it is done: 1.2 In vitro drug sensitivity assays - Trypanosoma congolense
EC50 values for test compounds against T. congolense (IL3000 strain) were conducted as previously described3 with minor modifications.4 Briefly, trypanosome cell densities were determined using a CASY cell counter (Schärfe) and diluted to a seeding density of 2 x 105 trypanosomes/mL. BSF trypanosomes were grown in HMI-9 (IMDM) media supplemented with 20% (v/v) bovine serum.1 Test compounds were resuspended to a final concentration of 10 mg/mL in DMSO. Assays plates were incubated at 34 °C with 5 % CO2, for a total of 69 h, prior to addition of 10 µL of Resazurin (12.5 mg in 100 mL phosphate buffered saline, Aldrich) into each well, followed by a further 3 h incubation. Absorbance was read using a SpectraMax (Gemini XS) fluorescence reader at an excitation wavelength of 536 nm and an emission wavelength of 588 nm. EC50 values were determined using SOFTmax Pro 5.2 analysis software. All experiments were conducted with technical duplicates, and at least three biological replicates. […]

The test system of test [1] is T. vivax. Put plainly: NMRI mouse efficacy model, T. vivax. The class given is in vivo, Trypanosoma vivax. The note with it: for Efficacy, T. vivax / Efficacy at 10 mg/kg SC for 4 days, T. vivax: mice; for Efficacy at 10 mg/kg SC for 4 days, T. vivax: 10 mg/kg SC once daily for 4 days. On the procedure:
3. In vivo efficacy studies
The T. congolense (IL3000) and T. vivax (ILRAD V34) cell lines7, 8, both originating from Kenya, were used in the following in vivo mouse studies. For studies in cattle, either Trypanosoma congolense (savannah) KONT 2/133, 224) or T. vivax STIB 719 was used.
3.1 Mouse efficacy studies for T. brucei brucei.
Mouse efficacy studies for T. brucei brucei were carried out as previously detailed.9 3.2 NMRI mouse efficacy studies for T. congolense and T. vivax.
Mouse models of infections were carried out using standardized protocols. Briefly, 1 mL samples of cryopreserved T. congolense, or T. vivax-infected blood harvested directly from an infected mouse, were diluted with Hanks Balanced Salt Solution plus 20 mM glucose (HBSS+G) to 5 x 10^4 trypomastigotes/mL (5 x 105 for T. vivax). Female mice (NMRI) were inoculated IP on day 0 with 0.2 mL/animal (equivalent to ~ 1 x 104 T. congolense or ~ 1 x 105 T. vivax per animal). The level of parasitaemia was inspected microscopically on day 3 using tail blood smears, counting 20 high powered fields (× 400 magnification). For untreated or treated animals whose tail smears exceeded 50 parasites/field, precise parasite levels were established using a Neubauer haemocytometer; mice with a parasite burden over 1 x 108 were promptly and humanely terminated (T. congolense only, from our experience the mice will not survive for a further 24 h). Alternatively, in the case of T. vivax-infected mice the immune system will bring the infection to a sub-lethal level (below limit of detection) […]
followed by cycles of high and low parasitaemia. Eventually mice infected with T. vivax succumb to the infection between 30 – 60 days post-infection.
Suppression of parasitaemia - mouse
On day 3 post-infection, animals were randomly allocated to groups, with 3 mice/group. Infected animals were dosed with one of the following: diaminazene diaceturate IP. – 40 mg/kg once only as a control (early-stage trypanocide used to clear the parasites in the systemic circulation and in tissues other than CNS), compound 1 (SC) at 3, 10, 30 and 50 mg free base/kg twice and once daily for 4 d or a single dose, or compound 2 (SC) at 3 and 10 mg free base /kg once daily for 4 d, once daily for 2 d or a single dose, one group of 3 mice acted as an untreated control group. The dose solutions were prepared daily, using 5% DMSO: 40% PEG400: 55% MilliQ H2O for test compounds and 10% DMSO: 90% peanut oil for standard drugs. Alternatively, compound 2 was delivered for 48 h via SC implanted ALZET osmotic pumps (6, 12, 25 and 50 mg free base/mL, vehicle: 50% DMSO […]
and 50% deionized water).
Response to treatment was determined by monitoring parasitaemia twice a week until day 21.
After day 21, the mice were checked once a week until 63 d post-treatment. Mice surviving to the end of the experiment, and with blood smears clear of parasites, were considered cured. […]
The parasites were obtained from a donor calf. This isolate is resistant to diminazene (20 mg/kg) and isometamidium (1 mg/kg) in cattle, and diminazene (7 mg/kg) and isometamidium (>1 mg/kg) in mice. Calves were parasitaemic by study day 6. Calves (n = 5) were treated with compound 1 (5 mg/kg, SC, twice 12 h apart) on study

Test [2] relates to T. vivax. Put plainly: Ex vivo drug sensitivity assay, T. vivax (STIB 719/ILRAD 560). Format: cell-based. The note with it: Trypanosoma vivax. On the procedure: Test compounds were resuspended to a final concentration of 10 mg/mL in DMSO. […]
1.3 Ex vivo drug sensitivity assays - Trypanosoma vivax
Since T. vivax cannot be cultured axenically, BSF trypanosomes were harvested from an infected mouse with high parasitemia via cardiac puncture and used directly in ex vivo assays. EC50 values were determined against T, vivax (STIB 719/ ILRAD 560) as previously described3, with minor modifications. Briefly, cell densities were determined using a Neubauer chamber and then diluted to a seeding density of 4 x 105 trypanosomes / mL. BSF trypanosomes were cultured in HMI-9 (IMDM) media containing 20% (v/v) bovine serum. Assay plates were incubated at 37 °C with 5 % CO2, for a total of 45 h prior to addition 10 µL of Resazurin (12.5 mg in 100 mL phosphate buffered saline, Aldrich) into each well, followed by a further 3 h incubation. Absorbance was read using a SpectraMax (Gemini XS) fluorescence reader at an excitation wavelength of 536 nm and an emission wavelength of 588 nm. EC50 values were determined using SOFTmax Pro 5.2 analysis […]
software. […]

In another test the test system is L6 cells. The test is described as follows: Cytotoxicity assay, rat skeletal myoblasts (L6). Format: cell-based. How it is done:
1.4 Cytotoxicity assays – Rat skeletal myoblasts (L6)
The cytotoxicity of test compounds was evaluated using a rat skeletal myoblast (L6) cell line, as previously described3, but with minor modifications. Cells were grown in RPMI media supplemented with 10% (v/v) fetal calf serum. L6 cells at a seeding density of 2 x 10^4 cells/mL were incubated in microtiter plates overnight at 37 °C and 5 % CO2 until adherent. The following day, test compounds were added to the plates (3-fold serial dilutions), prior to incubation for 69 h. Following incubation, 10 µL of Resazurin (12.5 mg in 100 mL phosphate buffered saline, Aldrich) was added to each well and the plates were incubated for a further 3 h. The plates were read using a SpectraMax (Gemini XS) fluorescence reader at an excitation wavelength of 536 nm and an emission wavelength of 588 nm. EC50 values were determined using SOFTmax Pro 5.2 analysis software. All experiments were conducted as technical replicates, with at least three biological replicates. […]

Take `CC(C)CS(=O)(=O)N[C@H]1CC[C@H](Nc2nc(N)c(C(=O)c3c(F)cccc3F)s2)CC1` [Compound 1, N-((trans)-4-((4-Amino-5-(2,6-difluorobenzoyl)thiazol-2-yl)amino)cyclohexyl)-2-methylpropane-1-sulfonamide]: the EC50 in the test with T. congolense came out at 18 nM; in the test with T. vivax [2], 95 nM. In addition, the “Acute T. vivax efficacy in mice” value in the test on T. vivax [1] (3 mg/kg bid SC for 4 days) is given as “Full cure”; with T. vivax [1] (10 mg/kg bid SC for 4 days) it was “Full cure”; in the test with T. vivax [1] (10 mg/kg, single dose, SC), “Partial cure (1/3)”; with T. vivax [1] (30 mg/kg, single dose, SC), “sterile cure; also recorded: Full cure”. The “T. vivax efficacy in mice” value with T. vivax [1] (3 mg/kg once daily for 4 days, SC) is on record as “sterile cure”.
On to `CC(C)CS(=O)(=O)N[C@H]1CC[C@H](Nc2nc(N)c(C(=O)c3c(F)cc(CN(C)C)cc3F)s2)CC1` [Compound 2, N-(trans)-[4-[[4-Amino-5-[4-(dimethylaminomethyl)-2,6-difluoro-benzoyl]thiazol-2-yl]amino]cyclohexyl]-2-methyl-propane-1-sulfonamide], for which the EC50 with L6 cells stood at 3600 nM; in the test on T. congolense, 3.2 nM; in the test with T. vivax [2], 0.08 nM. For the same compound, the “Efficacy, T. vivax” value was “Full cure (3/3) 3 and 10 mg/kg for 4 days 10 mg/kg for 2 days; also recorded: Full cure (3/3); 3 and 10 mg/kg for 4 days, 10 mg/kg for 2 days” in the test with T. vivax [1] (3 mg/kg for 4 days, 3 mg/kg); “Full cure (3/3) 3 and 10 mg/kg for 4 days 10 mg/kg for 2 days; also recorded: Full cure (3/3); 3 and 10 mg/kg for 4 days, 10 mg/kg for 2 days” with T. vivax [1] (10 mg/kg for 2 days, 10 mg/kg). The “Efficacy at 10 mg/kg SC for 4 days, T. vivax” value in the test with T. vivax [1] (10 mg/kg) was “fully curative; also recorded: Full cure (3/3) 3 and 10 mg/kg for 4 days 10 mg/kg for 2 days; also recorded: Full cure (3/3); 3 and 10 mg/kg for 4 days, 10 mg/kg for 2 days”.
In the case of `CNCc1cc(F)c(C(=O)c2sc(N[C@H]3CC[C@H](NS(=O)(=O)CC(C)C)CC3)nc2N)c(F)c1.Cl` [Compound 8, N-((trans)-4-((4-Amino-5-(2,6-difluoro-4-((methylamino)methyl)benzoylthiazol-2-yl)amino)cyclohexyl))-2-methylpropane-1-sulfonamide Hydrochloride], the results for the EC50 in the test with L6 cells, in the test with T. congolense and in the test on T. vivax [2] were 15000 nM, 1.3 nM and 0.68 nM, respectively. Besides, in the test with T. vivax [1], the “Efficacy at 10 mg/kg SC for 4 days, T. vivax” value is recorded as “Full cure (3/3)”.
On to `CC(C)CS(=O)(=O)N[C@H]1CC[C@H](Nc2nc(N)c(C(=O)c3c(Cl)cccc3Cl)s2)CC1` [Compound 10, N-((trans)-4-((4-Amino-5-(2,6-dichlorobenzoyl)thiazol-2-yl)amino)cyclohexyl)-2-methylpropane-1-sulfonamide], for which the EC50 with L6 cells amounted to 3400 nM; with T. congolense, 0.4 nM; with T. vivax [2] it was 0.47 nM. Further, the “Efficacy, T. vivax” value in the test with T. vivax [1] (3 mg/kg for 4 days) is given as “Full cure (3/3) 3 mg/kg”.

The term EC50 denotes the midpoint of the concentration-response curve.
